Source: patent publication US20240398828A1, “HETERO-ATOM CONTAINING COMPOUNDS AND USES THEREOF” (Kumquat Biosciences Inc., priority 2021, published 2024)

Assays:
PTPN2 (i.e., TC-PTP) = target: T1, PTPN2 (i.e., TC-PTP) (Homo sapiens, UniProt P17706); test: Phosphatase activity assay (DiFMUP substrate), PTPN2; type: biochemical; conditions: compounds binned ≤1 uM or >1 uM
T1 sequence (P17706 1-415): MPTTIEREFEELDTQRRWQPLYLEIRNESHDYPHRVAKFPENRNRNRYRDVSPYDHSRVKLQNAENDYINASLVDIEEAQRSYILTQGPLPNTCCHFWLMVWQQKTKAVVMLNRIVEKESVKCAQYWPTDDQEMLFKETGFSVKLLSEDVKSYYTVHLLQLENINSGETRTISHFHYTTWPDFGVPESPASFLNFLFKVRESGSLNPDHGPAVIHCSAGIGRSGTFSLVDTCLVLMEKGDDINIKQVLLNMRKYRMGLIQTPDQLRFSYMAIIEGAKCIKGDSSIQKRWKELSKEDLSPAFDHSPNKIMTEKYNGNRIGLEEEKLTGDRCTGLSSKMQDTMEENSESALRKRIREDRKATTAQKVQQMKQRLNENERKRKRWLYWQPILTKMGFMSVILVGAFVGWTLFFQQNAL
In short: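 Read-out is continuous fluorescence of DiFMU (360 nm excitation, 450 nm emission) over about 15-30 minutes, with DiFMUP substrate at the enzyme's independently determined Km (PTPN2 approx. 45 μM final). Buffer: 50 mM HEPES pH 7.5, 150 mM NaCl, 0.5 mM EDTA, 1 mM DTT, 0.001% Tween-20, room temperature; initial rates versus 10-point dilution fitted for IC50, at least duplicate.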

PTPN1 (i.e., PTP1B) = target: T2, PTPN1 (i.e., PTP1B) (Homo sapiens, UniProt P18031); test: Phosphatase activity assay (DiFMUP substrate), PTP1B; type: biochemical; conditions: compounds binned ≤1 uM or >1 uM
T2 sequence (P18031 1-435): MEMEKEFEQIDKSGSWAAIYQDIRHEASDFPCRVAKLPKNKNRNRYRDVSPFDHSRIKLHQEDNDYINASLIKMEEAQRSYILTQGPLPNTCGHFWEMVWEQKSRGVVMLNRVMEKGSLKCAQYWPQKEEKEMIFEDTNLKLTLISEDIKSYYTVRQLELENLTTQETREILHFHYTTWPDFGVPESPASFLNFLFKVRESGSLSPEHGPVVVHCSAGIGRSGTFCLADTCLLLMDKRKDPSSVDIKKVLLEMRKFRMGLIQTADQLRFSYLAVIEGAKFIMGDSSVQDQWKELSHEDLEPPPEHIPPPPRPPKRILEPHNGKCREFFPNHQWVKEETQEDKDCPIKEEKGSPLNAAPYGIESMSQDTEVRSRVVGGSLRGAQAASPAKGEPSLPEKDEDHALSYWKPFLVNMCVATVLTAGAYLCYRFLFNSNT
In short: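 RT, HEPES pH 7.5 buffer with DTT/Tween-20. 10-point inhibitor series premixed ~2 min with enzyme (PTPN2 0.025 ng/ul). Start with DiFMUP at enzyme Km (~45 μM for PTPN2). Read DiFMU ex360/em450 continuously 15–30 min; initial rate vs concentration, 4-parameter fit → IC50.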

IC50 (PTPN2 (i.e., TC-PTP))	IC50 (PTPN1 (i.e., PTP1B))	SMILES
≤ 1 µM	≤ 1 µM	O=C1CN(c2c(O)ccc(-c3cnn(C4CCC(F)(F)CC4)c3)c2F)S(=O)(=O)N1 [Compound 446, 5-(3-(1-(4,4-difluorocyclohexyl)-1H-pyrazol-4-yl)-2-fluoro-6-hydroxyphenyl)-1,2,5-thiadiazolidin-3-one 1,1-dioxide]
≤ 1 µM	≤ 1 µM	CC(C)c1cc(-c2ccc(O)c(N3CC(=O)NS3(=O)=O)c2F)nn1C [Compound 447, 5-(2-fluoro-6-hydroxy-3-(5-isopropyl-1-methyl-1H-pyrazol-3-yl)phenyl)-1,2,5-thiadiazolidin-3-one 1,1-dioxide]
≤ 1 µM	≤ 1 µM	O=C1CN(c2c(O)ccc(-c3cc(N4CCC(O)C4)n[nH]3)c2F)S(=O)(=O)N1 (stereo not shown) [Compound 448, 5-(2-fluoro-6-hydroxy-3-(3-(3-hydroxypyrrolidin-1-yl)-1H-pyrazol-5-yl)phenyl)-1,2,5-thiadiazolidin-3-one 1,1-dioxide]
≤ 1 µM	≤ 1 µM	O=C1CN(c2c(O)ccc(-c3cccc(NS(=O)(=O)C4CC4)c3)c2F)S(=O)(=O)N1 [Compound 449, N-(3′-(1,1-dioxido-4-oxo-1,2,5-thiadiazolidin-2-yl)-2′-fluoro-4′-hydroxy-[1,1′-biphenyl]-3-yl)cyclopropanesulfonamide]
≤ 1 µM	≤ 1 µM	O=C1CN(c2c(O)ccc(C3CCC(NS(=O)(=O)C4CC4)CC3)c2F)S(=O)(=O)N1 (stereo not shown) [Compound 450, N-(4-(3-(1,1-dioxido-4-oxo-1,2,5-thiadiazolidin-2-yl)-2-fluoro-4-hydroxyphenyl)cyclohexyl)cyclopropanesulfonamide]
≤ 1 µM	≤ 1 µM	O=C1CN(c2c(O)ccc(-c3cc(N4CC(F)(F)C4)n[nH]3)c2F)S(=O)(=O)N1 [Compound 451, 5-(3-(3-(3,3-difluoroazetidin-1-yl)-1H-pyrazol-5-yl)-2-fluoro-6-hydroxyphenyl)-1,2,5-thiadiazolidin-3-one 1,1-dioxide]
≤ 1 µM	≤ 1 µM	O=C1CN(c2c(O)ccc(-c3cc(CCC4CC4)n[nH]3)c2F)S(=O)(=O)N1 [Compound 452, 5-(3-(3-(2-cyclopropylethyl)-1H-pyrazol-5-yl)-2-fluoro-6-hydroxyphenyl)-1,2,5-thiadiazolidin-3-one 1,1-dioxide]
≤ 1 µM	≤ 1 µM	O=C1CN(c2c(O)ccc(-c3cn(CC4CCCCC4)cn3)c2F)S(=O)(=O)N1 [Compound 453, 5-(3-(1-(cyclohexylmethyl)-1H-imidazol-4-yl)-2-fluoro-6-hydroxyphenyl)-1,2,5-thiadiazolidin-3-one 1,1-dioxide]
≤ 1 µM	≤ 1 µM	Cc1cc(-c2ccc(O)c(N3CC(=O)NS3(=O)=O)c2F)nn1C [Compound 454, 5-(3-(1,5-dimethyl-1H-pyrazol-3-yl)-2-fluoro-6-hydroxyphenyl)-1,2,5-thiadiazolidin-3-one 1,1-dioxide]
≤ 1 µM	≤ 1 µM	O=C1CN(c2c(O)ccc(-c3cc(CCC4CCCCC4)n[nH]3)c2F)S(=O)(=O)N1 [Compound 455, 5-(3-(3-(2-cyclohexylethyl)-1H-pyrazol-5-yl)-2-fluoro-6-hydroxyphenyl)-1,2,5-thiadiazolidin-3-one 1,1-dioxide]
≤ 1 µM	≤ 1 µM	O=C1CN(c2c(O)ccc(-c3cnn(C4CCCOCC4)c3)c2F)S(=O)(=O)N1 (stereo not shown) [Compound 456, 5-(2-fluoro-6-hydroxy-3-(1-(oxepan-4-yl)-1H-pyrazol-4-yl)phenyl)-1,2,5-thiadiazolidin-3-one 1,1-dioxide]
≤ 1 µM	≤ 1 µM	O=C1CN(c2c(O)ccc(-c3cn(Cc4cccnc4)cn3)c2F)S(=O)(=O)N1 [Compound 457, 5-(2-fluoro-6-hydroxy-3-(1-(pyridin-3-ylmethyl)-1H-imidazol-4-yl)phenyl)-1,2,5-thiadiazolidin-3-one 1,1-dioxide]
≤ 1 µM	≤ 1 µM	O=C1CN(c2c(O)ccc(-n3cc(C4CC4)c(O)n3)c2F)S(=O)(=O)N1 [Compound 458, 5-(3-(4-cyclopropyl-3-hydroxy-1H-pyrazol-1-yl)-2-fluoro-6-hydroxyphenyl)-1,2,5-thiadiazolidin-3-one 1,1-dioxide]
≤ 1 µM	≤ 1 µM	O=C1CN(c2c(O)ccc(-c3cn(C4CCCCC4)cn3)c2F)S(=O)(=O)N1 [Compound 459, 5-(3-(1-cyclohexyl-1H-imidazol-4-yl)-2-fluoro-6-hydroxyphenyl)-1,2,5-thiadiazolidin-3-one 1,1-dioxide]
> 1 µM	≤ 1 µM	O=C1CN(c2c(O)ccc(-c3cc(C(=O)NC4CC4)n[nH]3)c2F)S(=O)(=O)N1 [Compound 460, N-cyclopropyl-5-(3-(1,1-dioxido-4-oxo-1,2,5-thiadiazolidin-2-yl)-2-fluoro-4-hydroxyphenyl)-1H-pyrazole-3-carboxamide]
≤ 1 µM	≤ 1 µM	CC(C)N1CC=C(c2ccc(O)c(N3CC(=O)NS3(=O)=O)c2F)C1 [Compound 461, 5-(2-fluoro-6-hydroxy-3-(1-isopropyl-2,5-dihydro-1H-pyrrol-3-yl)phenyl)-1,2,5-thiadiazolidin-3-one 1,1-dioxide]
≤ 1 µM	≤ 1 µM	CC(O)c1cc(-c2ccc(O)c(N3CC(=O)NS3(=O)=O)c2F)[nH]n1 (stereo not shown) [Compound 462, 5-(2-fluoro-6-hydroxy-3-(3-(1-hydroxyethyl)-1H-pyrazol-5-yl)phenyl)-1,2,5-thiadiazolidin-3-one 1,1-dioxide]
≤ 1 µM	≤ 1 µM	Cn1nc(-c2ccc(O)c(N3CC(=O)NS3(=O)=O)c2F)cc1CCC1CC1 [Compound 463, 5-(3-(5-(2-cyclopropylethyl)-1-methyl-1H-pyrazol-3-yl)-2-fluoro-6-hydroxyphenyl)-1,2,5-thiadiazolidin-3-one 1,1-dioxide]
≤ 1 µM	≤ 1 µM	O=C1CN(c2c(O)ccc(-c3cc(CCCC4CC4)n[nH]3)c2F)S(=O)(=O)N1 [Compound 464, 5-(3-(3-(3-cyclopropylpropyl)-1H-pyrazol-5-yl)-2-fluoro-6-hydroxyphenyl)-1,2,5-thiadiazolidin-3-one 1,1-dioxide]
≤ 1 µM	≤ 1 µM	O=C1CN(c2c(O)ccc(-c3cnn(C4CC5CCC(C4)O5)c3)c2F)S(=O)(=O)N1 (stereo not shown) [Compound 465, 5-(3-(1-(8-oxabicyclo[3.2.1]octan-3-yl)-1H-pyrazol-4-yl)-2-fluoro-6-hydroxyphenyl)-1,2,5-thiadiazolidin-3-one 1,1-dioxide]
≤ 1 µM	≤ 1 µM	O=C1CN(c2c(O)ccc(-c3cc(N4CC5(COC5)C4)n[nH]3)c2F)S(=O)(=O)N1 [Compound 466, 5-(3-(3-(2-oxa-6-azaspiro[3.3]heptan-6-yl)-1H-pyrazol-5-yl)-2-fluoro-6-hydroxyphenyl)-1,2,5-thiadiazolidin-3-one 1,1-dioxide]
≤ 1 µM	≤ 1 µM	CC(C)n1cc(-c2ccc(O)c(N3CC(=O)NS3(=O)=O)c2F)c(F)n1 [Compound 467, 5-(2-fluoro-3-(3-fluoro-1-isopropyl-1H-pyrazol-4-yl)-6-hydroxyphenyl)-1,2,5-thiadiazolidin-3-one 1,1-dioxide]
> 1 µM	≤ 1 µM	Cn1nc(-c2ccc(O)c(N3CC(=O)NS3(=O)=O)c2F)cc1C1CCCN1 (stereo not shown) [Compound 468, 5-(2-fluoro-6-hydroxy-3-(1-methyl-5-(pyrrolidin-2-yl)-1H-pyrazol-3-yl)phenyl)-1,2,5-thiadiazolidin-3-one 1,1-dioxide]
≤ 1 µM	≤ 1 µM	O=C1CN(c2c(O)ccc(-c3cn(C4CCCCC4)nc3F)c2F)S(=O)(=O)N1 [Compound 469, 5-(3-(1-cyclohexyl-3-fluoro-1H-pyrazol-4-yl)-2-fluoro-6-hydroxyphenyl)-1,2,5-thiadiazolidin-3-one 1,1-dioxide]
≤ 1 µM	≤ 1 µM	CC1CC=C(c2ccc(O)c(N3CC(=O)NS3(=O)=O)c2F)CN1 (stereo not shown) [Compound 470, 5-(2-fluoro-6-hydroxy-3-(6-methyl-1,2,5,6-tetrahydropyridin-3-yl)phenyl)-1,2,5-thiadiazolidin-3-one 1,1-dioxide]
≤ 1 µM	≤ 1 µM	C=CCCC1C=C(c2ccc(O)c(N3CC(=O)NS3(=O)=O)c2F)CN1 (stereo not shown) [Compound 471, 5-(3-(5-(but-3-en-1-yl)-2,5-dihydro-1H-pyrrol-3-yl)-2-fluoro-6-hydroxyphenyl)-1,2,5-thiadiazolidin-3-one 1,1-dioxide]
